Like-named read-outs stand apart in the source and are kept apart here.
How the values were obtained:
[1] = target: NDM-1 (Klebsiella pneumoniae, UniProt C7C422); assay: Inhibitory activity on MBL, fluorescent substrate FC-5; assay type: biochemical
[2] = target: NDM-5 (Klebsiella pneumoniae, UniProt C7C422, M154L/V88L); assay: as above; assay type: biochemical
[3] = target: IMP-1 (Serratia marcescens, UniProt P52699); assay: as above; assay type: biochemical
[4] = target: VIM-1 (Pseudomonas aeruginosa, UniProt A0A0F7KYQ8); assay: as above; assay type: biochemical
[5] = target: VIM-2 (Escherichia coli, UniProt Q5U7L7); assay: as above; assay type: biochemical; settings: read-out: Inhibitory activity on MBL VIM-2 (IC50 class)
[6] = target: KPC-2 (Klebsiella pneumoniae, UniProt Q9F663); assay: Inhibitory activity on SBL, fluorescent substrate FC-5; assay type: biochemical; settings: for IC50: read-out: Inhibitory activity on SBL KPC-2 (IC50 class)
[7] = target: TEM-1 (Escherichia coli, UniProt P62593); assay: as above; assay type: biochemical; settings: for IC50: read-out: Inhibitory activity on SBL TEM-1 (IC50 class)
[8] = target: T1, SHV-12 (UniProt P0AD64, L31Q/G234S/E235K, species not given); assay: as above; assay type: biochemical; settings: for IC50: read-out: Inhibitory activity on SBL SHV-12 (IC50 class)
T1 sequence (P0AD64 1-286 L31Q/G234S/E235K): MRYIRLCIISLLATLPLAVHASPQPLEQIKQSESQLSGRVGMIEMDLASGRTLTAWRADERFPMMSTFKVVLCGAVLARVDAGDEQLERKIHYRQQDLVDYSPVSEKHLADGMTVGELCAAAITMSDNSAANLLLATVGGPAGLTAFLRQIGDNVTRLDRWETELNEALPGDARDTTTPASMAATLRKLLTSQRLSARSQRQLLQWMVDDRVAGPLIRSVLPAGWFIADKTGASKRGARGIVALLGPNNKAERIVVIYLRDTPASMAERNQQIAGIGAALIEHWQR

[9] = target: CTX-M-14 (Escherichia coli, UniProt Q9L5C7); assay: as above; assay type: biochemical; settings: for IC50: read-out: Inhibitory activity on SBL CTX-M-14 (IC50 class)
[10] = target: OXA-48 (Klebsiella pneumoniae, UniProt Q6XEC0); assay: as above; assay type: biochemical; settings: for IC50: read-out: Inhibitory activity on SBL OXA-48 (IC50 class)
[11] = target: AmpC (UniProt P24735); assay: as above; settings: read-out: Inhibitory activity on SBL AmpC (IC50 class)
[12] = read-out: Inhibitory activity on MBL NDM-1 (IC50 class)
[13] = read-out: Inhibitory activity on MBL NDM-5 (IC50 class)
[14] = read-out: Inhibitory activity on MBL IMP-1 (IC50 class)
[15] = VIM-1 and/or VIM-2, read-out: inhibitory activity at a nanomolar-level on VIM-1 and/or VIM-2
[16] = read-out: Inhibitory activity on MBL VIM-1 (IC50 class)
[17] = read-out: inhibitory activity at a nanomolar-level on NDM-1
[18] = read-out: inhibitory activity at a nanomolar-level on NDM-5
[19] = IMP-1 and/or IMP-4, read-out: inhibitory activity at a nanomolar-level on IMP-1 and/or IMP-4

NDM-5, sequence (C7C422 29-270 V88L/M154L): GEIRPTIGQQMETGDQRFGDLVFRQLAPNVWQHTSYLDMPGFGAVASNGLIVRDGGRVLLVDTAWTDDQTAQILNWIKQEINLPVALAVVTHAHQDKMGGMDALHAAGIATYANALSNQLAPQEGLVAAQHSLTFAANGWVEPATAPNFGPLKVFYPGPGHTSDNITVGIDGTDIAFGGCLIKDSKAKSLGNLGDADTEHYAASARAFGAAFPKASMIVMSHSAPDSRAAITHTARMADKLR
CTX-M-14, sequence (Q9L5C7 entry or part of it): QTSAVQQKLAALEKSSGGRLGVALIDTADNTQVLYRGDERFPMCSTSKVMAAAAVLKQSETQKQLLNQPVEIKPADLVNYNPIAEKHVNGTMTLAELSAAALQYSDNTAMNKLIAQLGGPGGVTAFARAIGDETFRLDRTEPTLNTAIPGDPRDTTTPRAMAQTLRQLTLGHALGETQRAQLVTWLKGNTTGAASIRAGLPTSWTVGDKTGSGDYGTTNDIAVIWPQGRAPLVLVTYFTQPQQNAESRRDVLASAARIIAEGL
OXA-48, sequence (Q6XEC0 23-265 limits assumed): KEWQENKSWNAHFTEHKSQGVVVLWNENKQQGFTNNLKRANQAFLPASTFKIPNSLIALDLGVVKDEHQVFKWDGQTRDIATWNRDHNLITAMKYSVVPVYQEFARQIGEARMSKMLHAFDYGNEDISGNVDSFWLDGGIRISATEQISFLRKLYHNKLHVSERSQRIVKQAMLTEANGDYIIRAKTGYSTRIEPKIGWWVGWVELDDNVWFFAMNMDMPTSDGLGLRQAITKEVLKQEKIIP
IMP-1, sequence (P52699 19-246 limits assumed): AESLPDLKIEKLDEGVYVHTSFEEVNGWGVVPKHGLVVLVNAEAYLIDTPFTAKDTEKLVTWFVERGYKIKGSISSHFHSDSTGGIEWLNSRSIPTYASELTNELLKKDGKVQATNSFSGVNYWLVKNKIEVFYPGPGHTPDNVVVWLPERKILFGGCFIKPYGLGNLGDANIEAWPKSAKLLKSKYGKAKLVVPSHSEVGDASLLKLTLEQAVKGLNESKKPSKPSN
KPC-2, sequence (Q9F663 25-293 limits assumed): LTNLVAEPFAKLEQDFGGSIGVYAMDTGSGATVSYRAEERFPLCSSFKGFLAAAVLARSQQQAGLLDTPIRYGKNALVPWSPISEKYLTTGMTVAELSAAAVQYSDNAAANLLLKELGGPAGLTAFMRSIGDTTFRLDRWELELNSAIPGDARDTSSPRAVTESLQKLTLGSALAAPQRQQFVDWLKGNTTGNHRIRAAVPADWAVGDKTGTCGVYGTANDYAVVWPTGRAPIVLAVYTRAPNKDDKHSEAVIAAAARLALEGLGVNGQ
NDM-1, sequence (C7C422 29-270 limits assumed): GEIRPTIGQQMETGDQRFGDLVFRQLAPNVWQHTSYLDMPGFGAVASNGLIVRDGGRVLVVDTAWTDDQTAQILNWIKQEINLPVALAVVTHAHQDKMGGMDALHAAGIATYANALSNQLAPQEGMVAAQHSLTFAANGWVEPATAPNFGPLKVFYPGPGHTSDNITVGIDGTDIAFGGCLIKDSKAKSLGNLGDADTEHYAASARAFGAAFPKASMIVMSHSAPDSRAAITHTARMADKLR
TEM-1, sequence (P62593 24-286 limits assumed): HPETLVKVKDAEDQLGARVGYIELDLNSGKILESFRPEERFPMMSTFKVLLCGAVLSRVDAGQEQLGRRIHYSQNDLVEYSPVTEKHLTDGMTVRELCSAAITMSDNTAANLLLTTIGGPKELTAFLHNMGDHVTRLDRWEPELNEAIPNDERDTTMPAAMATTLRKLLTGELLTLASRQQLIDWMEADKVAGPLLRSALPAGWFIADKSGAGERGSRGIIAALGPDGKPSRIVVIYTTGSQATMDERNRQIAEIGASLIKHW

Compound	IC50 [1, 12] [µM]	IC50 [2, 13] [µM]	IC50 [3, 14] [µM]	IC50 [4, 15] [µM]	IC50 [4, 16] [µM]	IC50 [5] [µM]	IC50 [6] [µM]	IC50 [7] [µM]	IC50 [8] [µM]	IC50 [9] [µM]	IC50 [10] [µM]	IC50 [1, 17] [µM]	IC50 [2, 18] [µM]	IC50 [3, 19] [µM]	inhibitory activity on KPC-2 compared to avibactam ([6]; comparison in words)	inhibitory activity on TEM-1 compared to avibactam ([7]; comparison in words)	inhibitory activity on SHV-12 compared to control drugs ([8]; comparison in words)	inhibitory activity on CTX-M-14 compared to avibactam ([9]; comparison in words)	inhibitory activity on OXA-48 compared to avibactam ([10]; comparison in words)	IC50 [11] [µM]
O=C(O)c1c(Cn2cc(CN3CCCC3)nn2)ccc2c1OB(O)CC2 [Compound 5]	1 to 100	0.01 to 1	1 to 100	< 1	1 to 100	0.01 to 1	< 0.01	0.01 to 1	0.01 to 1	0.01 to 1	0.01 to 1									
NC1(c2cnn(Cc3ccc4c(c3C(=O)O)OB(O)CC4)c2)CC1 [Compound 40]	1 to 100	0.01 to 1	1 to 100		1 to 100	0.01 to 1	< 0.01	< 0.01	0.01 to 1	0.01 to 1	0.01 to 1									
N#Cc1cccn1Cc1ccc2c(c1C(=O)O)OB(O)CC2 [Compound 25]	1 to 100	1 to 100	1 to 100		1 to 100	1 to 100	< 0.01	0.01 to 1	0.01 to 1	0.01 to 1	0.01 to 1									
NCCN1Cc2cn(Cc3ccc4c(c3C(=O)O)OB(O)CC4)nc2C1 [Compound 70]	0.01 to 1	0.01 to 1	0.01 to 1	< 1	0.01 to 1	0.01 to 1	< 0.01	< 0.01	< 0.01	0.01 to 1	0.01 to 1	< 1	< 1	< 1	better or comparable	better or comparable	comparable to avibactam and tazobactam and superior to taniborbactam	better or comparable	better or comparable	
O=C(O)c1c(Cn2cc(C(F)(F)F)cn2)ccc2c1OB(O)CC2 [Compound 16]	0.01 to 1	0.01 to 1	1 to 100	< 1	1 to 100	0.01 to 1	< 0.01	0.01 to 1	0.01 to 1	< 0.01	< 0.01	< 1	< 1							
CCCc1cn(Cc2ccc3c(c2C(=O)O)OB(O)CC3)nn1 [Compound 4]	0.01 to 1	0.01 to 1	0.01 to 1		1 to 100	1 to 100	< 0.01	0.01 to 1	0.01 to 1	0.01 to 1	0.01 to 1	< 1	< 1	< 1						
NS(=O)(=O)NCc1cnn(Cc2ccc3c(c2C(=O)O)OB(O)CC3)c1 [Compound 36]	0.01 to 1	0.01 to 1	1 to 100		1 to 100	0.01 to 1	< 0.01	< 0.01	0.01 to 1	0.01 to 1	< 0.01	< 1	< 1							
O=C(O)c1c(Cn2cc(-c3ccccc3)nn2)ccc2c1OB(O)CC2 [Compound 12]	0.01 to 1	0.01 to 1	1 to 100	< 1	1 to 100	0.01 to 1	< 0.01	0.01 to 1		0.01 to 1	< 0.01	< 1	< 1							> 100
O=C(O)c1c(Cn2nccn2)ccc2c1OB(O)CC2 [Compound 1]	0.01 to 1	0.01 to 1	1 to 100	< 1	1 to 100	0.01 to 1	< 0.01	0.01 to 1	0.01 to 1	0.01 to 1	< 0.01	< 1	< 1							

— patent US20250205259A1, “CLASS OF 7-((FIVE-MEMBERED HETEROCYCLIC)METHYL)-8-CARBOXYLIC ACID-BENZO CYCLIC BORATE DERIVATIVES AND USES THEREOF” (priority 2022, published 2025)
